Reference: PubChem BioAssay (NCI)
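In this assay, cells in 96-well plates receive the compound at five concentrations for 48 hours. Endpoints are linearly interpolated between the surrounding concentrations. TGI is the concentration that stops growth completely.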

Tests used:
Experiment in all cases: NCI-60 cell line screen, 48 h
[1] = tested on: 786-0 renal
[2] = tested on: A498 renal
[3] = tested on: A549 NSCLC
[4] = tested on: ACHN renal
[5] = tested on: BT-549 breast
[6] = tested on: CAKI-1 renal
[7] = tested on: CCRF-CEM leukemia
[8] = tested on: COLO 205 colon
[9] = tested on: DU-145 prostate
[10] = tested on: EKVX NSCLC
[11] = tested on: HCC-2998 colon
[12] = tested on: HCT-116 colon
[13] = tested on: HCT-15 colon
[14] = tested on: HL-60(TB) leukemia
[15] = tested on: HOP-62 NSCLC
[16] = tested on: HS 578T breast
[17] = tested on: HT29 colon
[18] = tested on: IGROV1 ovarian
[19] = tested on: K-562 leukemia
[20] = tested on: KM12 colon
[21] = tested on: LOX IMVI melanoma
[22] = tested on: M14 melanoma
[23] = tested on: MALME-3M melanoma
[24] = tested on: MCF7 breast
[25] = tested on: MDA-MB-231 breast
[26] = tested on: MDA-MB-435
[27] = tested on: MDA-N
[28] = tested on: MOLT-4 leukemia
[29] = tested on: NCI-H226 lung
[30] = tested on: NCI-H23 lung
[31] = tested on: NCI-H460 lung
[32] = tested on: NCI-H522 lung
[33] = tested on: NCI/ADR-RES ovarian
[34] = tested on: OVCAR-3 ovarian
[35] = tested on: OVCAR-5 ovarian
[36] = tested on: OVCAR-8 ovarian
[37] = tested on: PC-3 prostate
[38] = tested on: RPMI-8226 leukemia
[39] = tested on: SF-268 CNS
[40] = tested on: SF-295 CNS
[41] = tested on: SF-539 CNS
[42] = tested on: SK-MEL-2 melanoma
[43] = tested on: SK-MEL-28 melanoma
[44] = tested on: SK-MEL-5 melanoma
[45] = tested on: SK-OV-3 ovarian
[46] = tested on: SN12C renal
[47] = tested on: SNB-19 CNS
[48] = tested on: SNB-75 CNS
[49] = tested on: SW-620 colon
[50] = tested on: T-47D breast
[51] = tested on: TK-10 renal
[52] = tested on: U251 CNS
[53] = tested on: UACC-257 melanoma
[54] = tested on: UACC-62 melanoma
[55] = tested on: UO-31 renal
[56] = tested on: HOP-92 NSCLC
[57] = tested on: OVCAR-4 ovarian
[58] = tested on: SR leukemia
[59] = tested on: RXF 393 renal

Compound: CCN(CC)CCCNc1[nH]ncc2cc3c(nc4ccccc43)c(C)c12
- TGI [1]: 17.3 µM
- TGI [2]: 28.7 µM
- TGI [3]: 26.7 µM
- TGI [4]: 21.9 µM
- TGI [5]: 32.7 µM
- TGI [6]: > 100 µM
- TGI [7]: 21.3 µM
- TGI [8]: 23.4 µM
- TGI [9]: 24.3 µM
- TGI [10]: 23.5 µM
- TGI [11]: 23.2 µM
- TGI [12]: 17.4 µM
- TGI [13]: 30 µM
- TGI [14]: 27.1 µM
- TGI [15]: 42.2 µM
- TGI [16]: 29.2 µM
- TGI [17]: 15.8 µM
- TGI [18]: 15.7 µM
- TGI [19]: > 100 µM
- TGI [20]: 18.5 µM
- TGI [21]: 20.6 µM
- TGI [22]: 52.3 µM
- TGI [23]: 31.4 µM
- TGI [24]: 38.4 µM
- TGI [25]: 19.4 µM
- TGI [26]: 36.1 µM
- TGI [27]: 30.8 µM
- TGI [28]: 5.43 µM
- TGI [29]: 25.3 µM
- TGI [30]: 28 µM
- TGI [31]: 18.1 µM
- TGI [32]: 16.3 µM
- TGI [33]: > 100 µM
- TGI [34]: 28.6 µM
- TGI [35]: 50.4 µM
- TGI [36]: 24.5 µM
- TGI [37]: 25.5 µM
- TGI [38]: 31.3 µM
- TGI [39]: 20.6 µM
- TGI [40]: 32.2 µM
- TGI [41]: 34.1 µM
- TGI [42]: > 100 µM
- TGI [43]: 32.5 µM
- TGI [44]: 38 µM
- TGI [45]: 34.3 µM
- TGI [46]: 19.9 µM
- TGI [47]: 27.5 µM
- TGI [48]: 26.4 µM
- TGI [49]: 17.4 µM
- TGI [50]: 29.4 µM
- TGI [51]: 36.2 µM
- TGI [52]: 24.4 µM
- TGI [53]: 29.5 µM
- TGI [54]: 29.4 µM
- TGI [55]: 24.5 µM

Compound: CCC1(O)CC(OC2CC(N(C)C)C(OC3CC(O)C(OC4CCC(=O)C(C)O4)C(C)O3)C(C)O2)c2c(cc3c(c2O)C(=O)c2c(O)ccc(O)c2C3=O)C1C(=O)OC (configuration not stated)
- TGI [1]: 0.493 µM
- TGI [5]: 1.78 µM
- TGI [6]: < 0.01 µM
- TGI [7]: 0.0528 µM
- TGI [8]: 0.0131 µM
- TGI [10]: 0.116 µM
- TGI [11]: < 0.0112 µM
- TGI [13]: 0.018 µM
- TGI [15]: 0.156 µM
- TGI [56]: 0.0185 µM
- TGI [16]: 0.384 µM
- TGI [17]: < 0.0105 µM
- TGI [18]: 1.22 µM
- TGI [19]: < 0.01 µM
- TGI [20]: 0.0994 µM
- TGI [21]: < 0.01 µM
- TGI [22]: 0.0516 µM
- TGI [23]: 0.029 µM
- TGI [24]: 2.01 µM
- TGI [25]: 0.113 µM
- TGI [26]: 0.409 µM
- TGI [27]: 0.0251 µM
- TGI [28]: 0.0101 µM
- TGI [30]: 0.0343 µM
- TGI [31]: < 0.01 µM
- TGI [32]: < 0.01 µM
- TGI [33]: 0.259 µM
- TGI [34]: 0.186 µM
- TGI [57]: 0.214 µM
- TGI [35]: 10.8 µM
- TGI [36]: 0.0739 µM
- TGI [37]: 0.393 µM
- TGI [38]: 0.0109 µM
- TGI [39]: 0.208 µM
- TGI [40]: 0.441 µM
- TGI [42]: 0.0148 µM
- TGI [43]: 0.211 µM
- TGI [44]: 0.0282 µM
- TGI [45]: 13.3 µM
- TGI [46]: 1.18 µM
- TGI [47]: 2.41 µM
- TGI [48]: 0.0846 µM
- TGI [58]: < 0.01 µM
- TGI [49]: 3.56 µM
- TGI [50]: 0.597 µM
- TGI [51]: 0.0339 µM
- TGI [52]: 2.22 µM
- TGI [53]: 0.0294 µM
- TGI [54]: < 0.0132 µM
- TGI [55]: < 0.01 µM

Compound: COC(=O)/C1=C/c2c([nH]c3ccccc23)/C(C(=O)OC)=C\c2c1[nH]c1ccccc21
- TGI [1]: > 50 µM
- TGI [2]: > 50 µM
- TGI [3]: > 50 µM
- TGI [4]: > 50 µM
- TGI [5]: > 50 µM
- TGI [6]: > 50 µM
- TGI [8]: > 50 µM
- TGI [9]: > 50 µM
- TGI [10]: > 50 µM
- TGI [12]: > 50 µM
- TGI [13]: > 50 µM
- TGI [15]: > 50 µM
- TGI [16]: > 50 µM
- TGI [18]: 38.9 µM
- TGI [20]: > 50 µM
- TGI [21]: > 50 µM
- TGI [22]: > 50 µM
- TGI [23]: > 50 µM
- TGI [24]: > 50 µM
- TGI [25]: > 50 µM
- TGI [26]: > 50 µM
- TGI [27]: > 50 µM
- TGI [29]: > 50 µM
- TGI [30]: > 50 µM
- TGI [31]: > 50 µM
- TGI [32]: 22 µM
- TGI [33]: > 50 µM
- TGI [34]: > 50 µM
- TGI [35]: > 50 µM
- TGI [36]: > 50 µM
- TGI [59]: 33.3 µM
- TGI [39]: > 50 µM
- TGI [40]: > 50 µM
- TGI [41]: > 50 µM
- TGI [42]: > 50 µM
- TGI [44]: > 50 µM
- TGI [45]: > 50 µM
- TGI [46]: > 50 µM
- TGI [47]: > 50 µM
- TGI [49]: > 50 µM
- TGI [50]: > 50 µM
- TGI [51]: > 50 µM
- TGI [52]: > 50 µM
- TGI [53]: > 50 µM
- TGI [54]: > 50 µM
- TGI [55]: > 50 µM

Compound: NS(=O)(=O)c1nnc(NS(=O)(=O)c2ccc(F)cc2)s1
- TGI [1]: > 100 µM
- TGI [2]: > 100 µM
- TGI [3]: > 100 µM
- TGI [4]: > 100 µM
- TGI [5]: > 100 µM
- TGI [6]: > 100 µM
- TGI [7]: > 100 µM
- TGI [8]: > 100 µM
- TGI [9]: > 100 µM
- TGI [10]: > 100 µM
- TGI [11]: > 100 µM
- TGI [12]: > 100 µM
- TGI [13]: > 100 µM
- TGI [15]: > 100 µM
- TGI [56]: > 100 µM
- TGI [16]: > 100 µM
- TGI [19]: > 100 µM
- TGI [20]: > 100 µM
- TGI [21]: > 100 µM
- TGI [22]: > 100 µM
- TGI [24]: > 100 µM
- TGI [25]: > 100 µM
- TGI [26]: > 100 µM
- TGI [27]: > 100 µM
- TGI [28]: > 100 µM
- TGI [29]: > 100 µM
- TGI [30]: > 100 µM
- TGI [31]: > 100 µM
- TGI [33]: > 100 µM
- TGI [34]: > 100 µM
- TGI [57]: > 100 µM
- TGI [35]: > 100 µM
- TGI [36]: > 100 µM
- TGI [38]: > 100 µM
- TGI [59]: > 100 µM
- TGI [39]: > 100 µM
- TGI [40]: > 100 µM
- TGI [41]: > 100 µM
- TGI [42]: > 100 µM
- TGI [43]: > 100 µM
- TGI [44]: > 100 µM
- TGI [45]: > 100 µM
- TGI [46]: > 100 µM
- TGI [47]: > 100 µM
- TGI [58]: > 100 µM
- TGI [49]: > 100 µM
- TGI [50]: > 100 µM
- TGI [51]: > 100 µM
- TGI [52]: > 100 µM
- TGI [53]: > 100 µM
- TGI [54]: > 100 µM
- TGI [55]: > 100 µM

Compound: C=CCOC(=O)C[C@H](NC(=O)[C@H](Cc1ccc(O)cc1)NCC(F)(F)F)C(=O)OCC=C
- TGI [1]: > 100 µM
- TGI [3]: > 100 µM
- TGI [4]: > 100 µM
- TGI [5]: > 100 µM
- TGI [6]: > 100 µM
- TGI [8]: > 100 µM
- TGI [10]: > 100 µM
- TGI [11]: > 100 µM
- TGI [12]: > 100 µM
- TGI [13]: > 100 µM
- TGI [15]: > 100 µM
- TGI [56]: > 100 µM
- TGI [16]: > 100 µM
- TGI [17]: > 100 µM
- TGI [18]: > 100 µM
- TGI [19]: > 100 µM
- TGI [20]: > 100 µM
- TGI [21]: > 100 µM
- TGI [22]: > 100 µM
- TGI [23]: 52.7 µM
- TGI [24]: > 100 µM
- TGI [25]: > 100 µM
- TGI [26]: > 100 µM
- TGI [27]: > 100 µM
- TGI [28]: 60.1 µM
- TGI [29]: > 100 µM
- TGI [30]: > 100 µM
- TGI [31]: > 100 µM
- TGI [32]: 68.9 µM
- TGI [33]: > 100 µM
- TGI [57]: > 100 µM
- TGI [35]: > 100 µM
- TGI [36]: > 100 µM
- TGI [37]: > 100 µM
- TGI [38]: > 100 µM
- TGI [59]: > 100 µM
- TGI [39]: > 100 µM
- TGI [40]: > 100 µM
- TGI [41]: > 100 µM
- TGI [42]: 46.1 µM
- TGI [43]: 44.5 µM
- TGI [44]: 97.5 µM
- TGI [45]: > 100 µM
- TGI [46]: > 100 µM
- TGI [47]: > 100 µM
- TGI [48]: > 100 µM
- TGI [58]: > 100 µM
- TGI [49]: > 100 µM
- TGI [50]: 58.1 µM
- TGI [51]: > 100 µM
- TGI [52]: > 100 µM
- TGI [53]: 44.2 µM
- TGI [54]: > 100 µM
- TGI [55]: > 100 µM
